# In PubChem BioAssay AID489040 (Sanford-Burnham Center for Chemical Genomics, 2010):
# Active and inactive are the calls of the source.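 The calls were made as follows: active = mean half-maximal activating concentration from the dose-response fit at or below a set limit; inactive = the rest.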
# Biological target: CHO-XBP1 luciferase reporter, IRE1-XBP1 UPR activation
# Assay: XBP1 luciferase reporter activation – CHO-XBP1 cells, luminescence, counter-screen for apoptotic UPR arm activators, dose response (AID 489040);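 also: reporter read after six hours of compound exposure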
row,Compound,EC50
1,Cc1ccc(C(=O)/C=C/C(=O)c2ccc(C)cc2)cc1,> 80 µM (inactive)
2,CCOC(=O)c1c(-c2ccc(-c3ccccc3)cc2)csc1NC(=O)CNCCN(C)C,> 80 µM (inactive)
3,CN1CCN(Cc2cc(COCc3ccccc3)c3cccnc3c2O)CC1,inactive
4,Oc1ccc(/C=N/Nc2cc(N3CCOCC3)nc(N3CCOCC3)n2)cc1O,> 80 µM (inactive)
5,COc1cccc(/C=N/Nc2nc(Nc3ccccc3)nc(-n3nc(C)cc3C)n2)c1O,5.09 µM
6,Cc1ccc(-c2nnc(-c3ccc(NC(=O)c4cccs4)cc3)o2)cc1,11.9 µM
7,O=S(=O)(CCSc1nc2ccccc2s1)c1nc2ccccc2s1,> 80 µM (inactive)
8,Cc1nc2ccccc2n1-c1nc(-c2ccco2)cc(C(F)(F)F)n1,> 80 µM (inactive)
9,Cc1ccc(Nc2nc(-c3ccc(O)c(O)c3)cs2)nc1,> 80 µM (inactive)
10,COc1cc(/C=C(/C(=O)c2cccs2)c2nc3ccccc3[nH]2)cc(OC)c1O,> 80 µM (inactive)
11,CCN(CC)S(=O)(=O)c1ccc(N/N=C(\C)c2ccc3c(c2)OCO3)c([N+](=O)[O-])c1,17.5 µM
12,O=C(N/N=C/c1ccccn1)c1sc2ccccc2c1Cl,> 80 µM (inactive)
13,CC1CCC/C=C/C2CC(O)CC2C(O)/C=C/C(=O)O1 (stereo not drawn),> 80 µM (inactive)
14,Cc1ccc(-c2cc(NC(=O)CCl)n(-c3ccccc3)n2)cc1,> 80 µM (inactive)
15,COc1ccc(NC(=O)c2nc(S(=O)(=O)Cc3cccc(C)c3)ncc2Cl)c(OC)c1,> 80 µM (inactive)
16,O=C(Nc1ccc2oc(-c3ccc4ccccc4c3)nc2c1)c1ccc2c(c1)OCCO2,inactive
17,Cc1cc(C)n(-c2nc(NC(C)(C)C)nc(NC(C)(C)C)n2)n1,> 80 µM (inactive)
18,O=C(CCN1C(=O)/C(=C\c2ccccc2F)SC1=S)N1CCCCC1,> 80 µM (inactive)
19,O=[N+]([O-])/C=C\c1ccc(N2CCOCC2)cc1,> 80 µM (inactive)
20,CCOC(=O)c1ccc(N2C(=O)C=CC2=O)cc1,> 80 µM (inactive)
21,CS(=O)(=O)c1nc(-c2ccccc2)cc(-c2ccccc2)c1C#N,> 80 µM (inactive)
22,O=C(/C=C/c1ccc([N+](=O)[O-])cc1)/C=C/c1ccco1,> 80 µM (inactive)
23,O=C(/C(=C/c1ccc(Cl)cc1)c1nc2ccccc2[nH]1)c1cccs1,> 80 µM (inactive)
24,CCCCn1c(/C=N/Nc2nc3ccccc3[nH]2)nc2ccccc21,> 80 µM (inactive)
25,CN(C)CC(CCC(CN(C)C)C(O)(c1ccccc1)c1ccccc1)C(O)(c1ccccc1)c1ccccc1 (stereo not drawn),> 80 µM (inactive)

row,Compound,EC50
1,CC(C)N=c1scc(-c2ccco2)n1/N=C/c1ccc(O)c(O)c1,4.51 µM
2,CC(=O)Nc1ccc(N=Cc2c(O)c(C(=O)Nc3ccccc3)cc3ccccc23)cc1,inactive
3,Cc1ccc(S(=O)(=O)Nc2cccc3cccnc23)cc1,> 80 µM (inactive)
4,COc1ccc(-n2c(C)cc(C(=O)CCl)c2C)cc1,4.68 µM
5,CCCC[C@@H](C)C[C@@H](C)C(=O)N(C)[C@@H](CC(C)C)C(=O)N[C@H](C(=O)N(C)[C@H](C(=O)N1C[C@@H](O)C[C@H]1C(=O)N1C(=O)C=C[C@@H]1C)C(C)C)C(C)OC(C)=O (stereo partly drawn),15.6 µM
6,Nc1nnnn1/N=C/C(Br)=C/c1ccccc1,> 80 µM (inactive)
7,O=C(CCN1C(=O)C2C3C=CC(C4CC34)C2C1=O)Oc1cccc2cccnc12 (stereo not drawn),> 80 µM (inactive)
8,Cc1nc([N+](=O)[O-])c(Br)n1CC(=O)c1ccc2ccccc2c1,> 80 µM (inactive)
9,CC1CCCCC1N1CN=C(Nc2nc3ccccc3s2)NC1 (stereo not drawn),> 80 µM (inactive)
10,Cc1ccc2nc(-c3ccc(O)c(O)c3)cn2c1,> 80 µM (inactive)
11,O=c1cc(C(Cl)(Cl)Cl)oc2c1ccc1ccccc12,inactive
12,COc1ccc(-c2cc(C(F)F)n3ncc(C(=O)n4ccnc4C)c3n2)cc1,> 80 µM (inactive)
13,Cc1cc(C)c2c(c1)/C(=c1/sc3n(c1=O)CN(c1ccccc1)CN=3)C(=O)N2,inactive
14,CN(C(=O)CSc1cc(C(=O)c2nccn2C)c2ccccc2n1)c1ccccc1,> 80 µM (inactive)
15,COc1ccc(C2c3ccc4ccccc4c3Oc3ncn(CCCN(C)C)c(=N)c32)cc1 (stereo not drawn),> 80 µM (inactive)
16,O=C(/C=C/c1cccnc1)c1ccc(NC(=O)c2cccc(Br)c2)cc1,> 80 µM (inactive)
17,Cc1nc([N+](=O)[O-])c(Br)n1CC(=O)c1ccc(Cl)cc1,> 80 µM (inactive)
18,CCc1ccc2nc(N(CCCN(C)C)C(=O)c3ccc(S(=O)(=O)N(C)C4CCCCC4)cc3)sc2c1,> 80 µM (inactive)
19,CN1C(=O)/C(=C/c2cccn2-c2ccc3ccccc3c2)C(=O)NC1=S,7.87 µM
20,Cc1cccc(C)c1NC(=O)C(Cl)C(=O)c1ccccc1 (stereo not drawn),> 80 µM (inactive)
21,O=S1(=O)Nc2c(ccc3cccnc23)-c2ccccc21,> 80 µM (inactive)
22,Cc1cc(NC(=O)c2cc(-c3ccccn3)nc3ccc(Br)cc23)no1,> 80 µM (inactive)
23,Cc1ccc(N2CCN(c3ccc(NCc4nc5ccccc5n4C)cc3)CC2)cc1,inactive
24,CCSC1(SCC)N=C(N)C2(C#N)C(c3ccc(OC)c(OC)c3OC)C12C#N (stereo not drawn),> 80 µM (inactive)
25,CN(C)C(=O)CSc1cccc2cccnc12,> 80 µM (inactive)

row,Compound,EC50
1,COc1cc(/C=C2\CC(C(C)(C)C)C/C(=C\c3cc(OC)c(OC)c(OC)c3)C2=O)cc(OC)c1OC (stereo not drawn),> 80 µM (inactive)
2,Cc1nn(Cc2c(Cl)cccc2Cl)c(C)c1NC(=O)c1sc2ccccc2c1Cl,inactive
3,Oc1c(Cl)cc(CN2CCOCC2)c2cccnc12,> 80 µM (inactive)
4,Cc1nc(SCC(=O)Nc2ccc(F)cc2)c(C#N)c(C)c1CC(=O)c1ccc(Br)cc1,> 80 µM (inactive)
5,O=C(CCl)Nc1cc(S(=O)(=O)N2CCCCCC2)ccc1Cl,> 80 µM (inactive)
6,CCOC(=O)C1=C(Cc2ccc(Cl)cc2)C(=O)c2ccccc2C1=O,> 80 µM (inactive)
7,CCCN1C/C(=C/c2ccc3c(c2)OCO3)C(=O)/C(=C/c2ccc3c(c2)OCO3)C1,> 80 µM (inactive)
8,O=C1C=CC(=O)N1c1ccc(N2CCCCC2)cc1,> 80 µM (inactive)
9,COc1ccc(/C=C/C(=O)c2ccc(C(=O)/C=C/c3ccc(OC)c(OC)c3)cc2)cc1OC,> 80 µM (inactive)
10,CCOc1ccc2nc(SC3CC(=O)N(c4ccc(C)cc4)C3=O)sc2c1 (stereo not drawn),> 80 µM (inactive)
11,O=c1[nH]c(=S)n(C2CC2)c(O)c1C=Nc1cccc(C(F)(F)F)c1,> 80 µM (inactive)
12,OCCNc1nc(Nc2ccc(Br)cc2)nc2ccccc12,5.17 µM
13,Cc1ccc(C)c2sc(N3CCN(C(=O)c4ccc([N+](=O)[O-])o4)CC3)nc12,> 80 µM (inactive)
14,COc1ccc(-c2nc(-c3ccccc3)nc(Cl)c2C#N)cc1,inactive
15,COc1cc(C(=O)Sc2ccc(Cl)cc2)cc(OC)c1OC,> 80 µM (inactive)
16,O=c1[nH]c(-c2ccc(-c3cccc(Cl)c3)o2)nc2ccccc12,15 µM
17,O=C(Nc1ccc(-c2nc3cc(NC(=O)c4cccs4)ccc3o2)cc1)c1cccs1,6.4 µM
18,Cc1ccc(NC(=O)COc2ccc(/C=C3/SC(=Nc4ccccc4)N(Cc4cccnc4)C3=O)cc2)cc1,inactive
19,Cc1ccc2nc(-c3ccc(NC(=S)NC4CC(C)(C)NC(C)(C)C4)cc3)sc2c1,> 80 µM (inactive)
20,Cc1cc(C(=O)CCl)c(C)n1Cc1ccco1,> 80 µM (inactive)
21,Cc1ccc(Sc2nc(-c3ccccc3)nnc2C(F)(F)F)cc1,> 80 µM (inactive)
22,COc1ccc(N=Cc2c(O)c3ccccc3oc2=O)cc1,11.6 µM
23,CC(=O)N(\C=C/C=C/C=C1\Sc2ccccc2C1=O)c1ccccc1,> 80 µM (inactive)
24,O=C(N/N=C/c1ccc(O)c(O)c1)NC12CC3CC(CC(C3)C1)C2,14.2 µM
25,COc1ccc(OC)c(Nc2nc(-c3ccc(O)c(O)c3)cs2)c1,> 80 µM (inactive)

row,Compound,EC50
1,C/C(=N\NC(=O)c1cc(-c2cccs2)nc2ccccc12)c1ccccn1,> 80 µM (inactive)
2,COc1cc(NS(=O)(=O)c2ccc3ccccc3c2)c2ncccc2c1,15.5 µM
3,O=C1NC(=O)N(Cc2ccccc2Cl)C(=O)/C1=C/c1cccs1,> 80 µM (inactive)
4,O=C(NCc1ccccc1Cl)c1cccc2c1C(=O)c1ccc(-c3ccc(OC(F)(F)F)cc3)cc1S2(=O)=O,inactive
5,CC(C)N1C(=O)/C(=C/C=C/c2ccco2)C(=O)N(Cc2ccco2)C1=O,> 80 µM (inactive)
6,O=C(NCc1cccnc1)/C(=C/c1ccc(-c2cccc(Cl)c2)o1)S(=O)(=O)c1ccccc1,> 80 µM (inactive)
7,O=C(Nc1ccc(N2CCOCC2)cc1)c1ccc([N+](=O)[O-])o1,> 80 µM (inactive)
8,Oc1ccc(-c2csc(-c3ccccc3)n2)cc1O,> 80 µM (inactive)
9,Cc1c(C#N)c(NC(=O)CCl)n(Cc2cccs2)c1C,> 80 µM (inactive)
10,CC(=O)c1cccc(N=Cc2c(O)c3ccccc3oc2=O)c1,15.4 µM
11,Cc1noc2ncnc(Sc3ccc(Cl)cc3)c12,> 80 µM (inactive)
12,CCOC(=O)c1sc(N(Cc2ccccc2)C(=O)CCl)nc1C,8.65 µM
13,CCN1CSC(=S)N(Cc2ccccc2)C1,> 80 µM (inactive)
14,COc1c(Cl)cc(Cl)cc1/C=C/C(=O)c1ccc(NC(=O)c2cccs2)cc1,> 80 µM (inactive)
15,COc1cc(C(=O)Nc2nc(-c3ccc(Cl)cc3)c(C)s2)ccc1OCC(=O)Nc1ccc(F)cc1,> 80 µM (inactive)
16,CN(C)CC(C(=O)c1ccccc1)c1ccccc1 (stereo not drawn),> 80 µM (inactive)
17,O=C(Nc1nccs1)c1cccc(N2C(=O)c3cccc4c([N+](=O)[O-])ccc(c34)C2=O)c1,> 80 µM (inactive)
18,O=C(Nc1cccc(-c2nc3cccnc3s2)c1)C1c2ccccc2Oc2ccccc21,5.58 µM
19,COC(=O)c1ccc(C(=O)OC)c(NC(=O)CSc2cccc[n+]2[O-])c1,9.54 µM
20,CC1=NOC(=O)/C1=C\c1ccc(-c2ccc(Cl)cc2Cl)o1,> 80 µM (inactive)
21,CCOC(=O)c1sc(NC(=S)NC(=O)c2ccccc2)c(C(=O)OCC)c1C,> 80 µM (inactive)
22,COc1ccc(N=c2oc3c(OC)cccc3cc2C(=O)NCc2ccco2)c(OC)c1,inactive
23,C/C(=N\NC(=O)c1cccc2ccccc12)c1ccccn1,> 80 µM (inactive)
